# Reference: ChEMBL document CHEMBL5303304, “EUbOPEN Chemogenomics Library - IncuCyte” (2023)
# Tests used:
# Format in all cases: toxicity, cell-based
# [1] = system: HEK-293T; experiment: Incucyte cell viability with HEK293T; conditions: human, 10 µM, compound concentration 10 uM
# [2] = system: Fibroblast; experiment: Incucyte cell viability with human fibroblast; conditions: 10 µM, compound concentration 10 uM
# [3] = system: U2OS; experiment: Incucyte cell viability with U2OS; conditions: human, 10 µM, compound concentration 10 uM
# Further: unitless GR value; below 1 slowed growth and below 0 cell loss.
smiles,measurement,setting,value
Cc1c(-c2c(F)cc(C(N)=O)c3[nH]c4c(c23)CC[C@H](C(C)(C)O)C4)cccc1-n1c(=O)c2cccc(F)c2n(C)c1=O [BMS-986142],Growth Rate,"[1]; 6 h, replicate number 1",-0.93
same,Growth Rate,"[1]; 6 h, replicate number 2",-0.99
same,Growth Rate,"[1]; 12 h, replicate number 1",-0.7
same,Growth Rate,"[1]; 12 h, replicate number 2",-0.83
same,Growth Rate,"[1]; 18 h, replicate number 1",-0.43
same,Growth Rate,"[1]; 18 h, replicate number 2",-0.59
same,Growth Rate,"[1]; 24 h, replicate number 1",-0.25
same,Growth Rate,"[1]; 24 h, replicate number 2",-0.39
same,Growth Rate,"[2]; 0 h, replicate number 1",-1
same,Growth Rate,"[2]; 6 h, replicate number 1",-0.27
same,Growth Rate,"[2]; 6 h, replicate number 2",-0.9
same,Growth Rate,"[2]; 12 h, replicate number 1",0.08
same,Growth Rate,"[2]; 12 h, replicate number 2",0.19
same,Growth Rate,"[2]; 18 h, replicate number 1",0.54
same,Growth Rate,"[2]; 18 h, replicate number 2",0.73
same,Growth Rate,"[2]; 24 h, replicate number 1",0.8
same,Growth Rate,"[2]; 24 h, replicate number 2",1
same,Growth Rate,"[3]; 0 h, replicate number 1",0.59
same,Growth Rate,"[3]; 0 h, replicate number 2",0.95
same,Growth Rate,"[3]; 6 h, replicate number 1",0.26
same,Growth Rate,"[3]; 6 h, replicate number 2",0.48
same,Growth Rate,"[3]; 12 h, replicate number 1",0.52
same,Growth Rate,"[3]; 12 h, replicate number 2",0.67
same,Growth Rate,"[3]; 18 h, replicate number 1",0.59
same,Growth Rate,"[3]; 18 h, replicate number 2",0.66
same,Growth Rate,"[3]; 24 h, replicate number 1",0.49
same,Growth Rate,"[3]; 24 h, replicate number 2",0.73
COc1ccc2c(O[C@@H]3C[C@H]4C(=O)N[C@]5(C(=O)NS(=O)(=O)C6(C)CC6)CC5/C=C\CCCCC[C@H](NC(=O)c5ccn(C)n5)C(=O)N4C3)cc(OC(C)C)nc2c1C (some centres not stated),Growth Rate,"[1]; 0 h, replicate number 1",1
same,Growth Rate,"[1]; 0 h, replicate number 2",0.49
same,Growth Rate,"[1]; 6 h, replicate number 1",0.89
same,Growth Rate,"[1]; 12 h, replicate number 1",0.8
same,Growth Rate,"[1]; 18 h, replicate number 1",0.9
same,Growth Rate,"[1]; 24 h, replicate number 1",0.9
same,Growth Rate,"[2]; 0 h, replicate number 2",0.85
same,Growth Rate,"[2]; 6 h, replicate number 2",-0.88
same,Growth Rate,"[2]; 18 h, replicate number 1",0.9
same,Growth Rate,"[2]; 18 h, replicate number 2",0.84
same,Growth Rate,"[2]; 24 h, replicate number 1",0.9
same,Growth Rate,"[2]; 24 h, replicate number 2",0.88
same,Growth Rate,"[3]; 0 h, replicate number 2",-0.46
same,Growth Rate,"[3]; 6 h, replicate number 2",0.93
same,Growth Rate,"[3]; 12 h, replicate number 2",0.63
same,Growth Rate,"[3]; 18 h, replicate number 1",0.99
same,Growth Rate,"[3]; 18 h, replicate number 2",0.79
same,Growth Rate,"[3]; 24 h, replicate number 2",0.78
CC(=O)c1ccc2c(c1)/C(=C(/NC1CCN(C)CC1)c1ccc3c(c1)OCO3)C(=O)N2,Growth Rate,"[1]; 0 h, replicate number 1",-0.53
same,Growth Rate,"[1]; 0 h, replicate number 2",0.02
same,Growth Rate,"[1]; 6 h, replicate number 1",-0.84
same,Growth Rate,"[1]; 6 h, replicate number 2",-0.95
same,Growth Rate,"[1]; 12 h, replicate number 1",-0.7
same,Growth Rate,"[1]; 12 h, replicate number 2",-0.83
same,Growth Rate,"[1]; 18 h, replicate number 1",-0.5
same,Growth Rate,"[1]; 18 h, replicate number 2",-0.63
same,Growth Rate,"[1]; 24 h, replicate number 1",-0.37
same,Growth Rate,"[1]; 24 h, replicate number 2",-0.45
same,Growth Rate,"[2]; 12 h, replicate number 2",0.74
same,Growth Rate,"[2]; 18 h, replicate number 1",0.78
same,Growth Rate,"[2]; 18 h, replicate number 2",0.48
same,Growth Rate,"[2]; 24 h, replicate number 1",0.63
same,Growth Rate,"[2]; 24 h, replicate number 2",0.37
same,Growth Rate,"[3]; 6 h, replicate number 1",0.57
same,Growth Rate,"[3]; 12 h, replicate number 1",0.52
same,Growth Rate,"[3]; 12 h, replicate number 2",0.33
same,Growth Rate,"[3]; 18 h, replicate number 1",0.32
same,Growth Rate,"[3]; 18 h, replicate number 2",0.13
same,Growth Rate,"[3]; 24 h, replicate number 1",0.21
same,Growth Rate,"[3]; 24 h, replicate number 2",0.13
Oc1cccc(Nc2ccnc3[nH]c4ccccc4c23)c1,Growth Rate,"[1]; 6 h, replicate number 1",-0.94
same,Growth Rate,"[1]; 6 h, replicate number 2",-0.96
same,Growth Rate,"[1]; 12 h, replicate number 1",-0.75
same,Growth Rate,"[1]; 12 h, replicate number 2",-0.62
same,Growth Rate,"[1]; 18 h, replicate number 1",-0.41
same,Growth Rate,"[1]; 18 h, replicate number 2",-0.28
same,Growth Rate,"[1]; 24 h, replicate number 1",-0.06
same,Growth Rate,"[1]; 24 h, replicate number 2",0
same,Growth Rate,"[2]; 0 h, replicate number 1",0.68
same,Growth Rate,"[2]; 6 h, replicate number 1",-0.78
same,Growth Rate,"[2]; 6 h, replicate number 2",-0.81
same,Growth Rate,"[2]; 12 h, replicate number 1",-0.34
same,Growth Rate,"[2]; 12 h, replicate number 2",-0.25
same,Growth Rate,"[2]; 18 h, replicate number 2",0.18
same,Growth Rate,"[2]; 24 h, replicate number 1",0.48
same,Growth Rate,"[2]; 24 h, replicate number 2",0.3
same,Growth Rate,"[3]; 12 h, replicate number 2",0.91
same,Growth Rate,"[3]; 18 h, replicate number 1",0.69
same,Growth Rate,"[3]; 18 h, replicate number 2",0.7
same,Growth Rate,"[3]; 24 h, replicate number 1",0.73
same,Growth Rate,"[3]; 24 h, replicate number 2",0.63
Cn1cc(C(=O)O)c2ccc(N3CCC(OCc4c(-c5c(Cl)cccc5Cl)noc4C4CC4)CC3)cc21 [TERN-101],Growth Rate,"[1]; 6 h, replicate number 1",0.97
same,Growth Rate,"[2]; 0 h, replicate number 2",0.89
same,Growth Rate,"[2]; 6 h, replicate number 1",-0.66
same,Growth Rate,"[2]; 6 h, replicate number 2",0.73
same,Growth Rate,"[2]; 12 h, replicate number 1",0.61
same,Growth Rate,"[2]; 18 h, replicate number 1",0.62
same,Growth Rate,"[2]; 18 h, replicate number 2",0.97
same,Growth Rate,"[2]; 24 h, replicate number 1",0.37
same,Growth Rate,"[2]; 24 h, replicate number 2",0.87
same,Growth Rate,"[3]; 0 h, replicate number 1",-0.23
same,Growth Rate,"[3]; 6 h, replicate number 1",0.86
same,Growth Rate,"[3]; 6 h, replicate number 2",-0.83
same,Growth Rate,"[3]; 12 h, replicate number 1",0.74
same,Growth Rate,"[3]; 12 h, replicate number 2",0.96
same,Growth Rate,"[3]; 18 h, replicate number 1",0.87
same,Growth Rate,"[3]; 24 h, replicate number 1",0.91
CC(C)n1cc(-c2ccc(N3CCN(C)CC3)c(NC(=O)c3ccc(-c4ccncc4)o3)c2)cn1,Growth Rate,"[1]; 6 h, replicate number 1",-0.65
same,Growth Rate,"[1]; 6 h, replicate number 2",-0.31
same,Growth Rate,"[1]; 12 h, replicate number 1",-0.36
same,Growth Rate,"[1]; 12 h, replicate number 2",-0.01
same,Growth Rate,"[1]; 18 h, replicate number 1",-0.19
same,Growth Rate,"[1]; 18 h, replicate number 2",0.15
same,Growth Rate,"[1]; 24 h, replicate number 1",-0.08
same,Growth Rate,"[1]; 24 h, replicate number 2",0.31
same,Growth Rate,"[2]; 0 h, replicate number 2",-0.35
same,Growth Rate,"[2]; 6 h, replicate number 1",-0.97
same,Growth Rate,"[2]; 6 h, replicate number 2",0.11
same,Growth Rate,"[2]; 12 h, replicate number 2",0.45
same,Growth Rate,"[2]; 18 h, replicate number 2",0.67
same,Growth Rate,"[2]; 24 h, replicate number 2",0.65
same,Growth Rate,"[3]; 0 h, replicate number 1",-0.65
same,Growth Rate,"[3]; 0 h, replicate number 2",-0.8
same,Growth Rate,"[3]; 12 h, replicate number 1",0.96
CCOc1ccccc1C(=O)NCC1(N2CCN(CC)CC2)CCCCC1,Growth Rate,"[1]; 0 h, replicate number 1",0.98
same,Growth Rate,"[1]; 6 h, replicate number 1",0.23
same,Growth Rate,"[1]; 6 h, replicate number 2",-0.02
same,Growth Rate,"[1]; 12 h, replicate number 1",-0.11
same,Growth Rate,"[1]; 12 h, replicate number 2",0.31
same,Growth Rate,"[1]; 18 h, replicate number 1",0.24
same,Growth Rate,"[1]; 18 h, replicate number 2",0.44
same,Growth Rate,"[1]; 24 h, replicate number 1",0.44
same,Growth Rate,"[1]; 24 h, replicate number 2",0.46
same,Growth Rate,"[2]; 0 h, replicate number 1",-0.95
same,Growth Rate,"[2]; 0 h, replicate number 2",-0.98
same,Growth Rate,"[2]; 6 h, replicate number 2",-0.9
same,Growth Rate,"[2]; 12 h, replicate number 2",0.93
same,Growth Rate,"[2]; 18 h, replicate number 1",-0.25
same,Growth Rate,"[2]; 24 h, replicate number 1",0.45
same,Growth Rate,"[2]; 24 h, replicate number 2",0.83
same,Growth Rate,"[3]; 0 h, replicate number 1",-0.19
same,Growth Rate,"[3]; 0 h, replicate number 2",-0.99
same,Growth Rate,"[3]; 6 h, replicate number 2",0.56
same,Growth Rate,"[3]; 12 h, replicate number 2",0.88
same,Growth Rate,"[3]; 18 h, replicate number 2",0.86
same,Growth Rate,"[3]; 24 h, replicate number 2",0.94
CCN(C(=O)CO)[C@H]1CN(/C(=N\C#N)Nc2cccc(OC(F)F)c2)N=C1c1ccc(Cl)c(Cl)c1,Growth Rate,"[1]; 0 h, replicate number 2",-0.6
same,Growth Rate,"[1]; 6 h, replicate number 2",0.79
same,Growth Rate,"[1]; 18 h, replicate number 1",0.96
same,Growth Rate,"[1]; 24 h, replicate number 1",0.91
same,Growth Rate,"[2]; 0 h, replicate number 2",0.47
same,Growth Rate,"[2]; 6 h, replicate number 2",0.31
same,Growth Rate,"[2]; 12 h, replicate number 2",0.8
same,Growth Rate,"[2]; 24 h, replicate number 2",0.98
same,Growth Rate,"[3]; 6 h, replicate number 1",1
same,Growth Rate,"[3]; 18 h, replicate number 1",-0.52
same,Growth Rate,"[3]; 24 h, replicate number 1",-0.49
COc1ccc(CC(=O)NCc2ccccc2-c2ccccc2C(=O)NCc2ccc(F)cc2F)cc1,Growth Rate,"[1]; 0 h, replicate number 1",0.52
same,Growth Rate,"[2]; 0 h, replicate number 2",-0.36
same,Growth Rate,"[2]; 18 h, replicate number 1",0.19
same,Growth Rate,"[2]; 18 h, replicate number 2",0.88
same,Growth Rate,"[2]; 24 h, replicate number 2",0.91
same,Growth Rate,"[3]; 0 h, replicate number 1",-0.79
same,Growth Rate,"[3]; 0 h, replicate number 2",-0.96
same,Growth Rate,"[3]; 24 h, replicate number 1",0.89
O=C1NCCSc2c1sc1ccc(O)cc21,Growth Rate,"[1]; 0 h, replicate number 1",0.04
same,Growth Rate,"[1]; 0 h, replicate number 2",-0.36
same,Growth Rate,"[1]; 6 h, replicate number 1",-0.48
same,Growth Rate,"[1]; 6 h, replicate number 2",-0.51
same,Growth Rate,"[1]; 12 h, replicate number 1",-0.4
same,Growth Rate,"[1]; 12 h, replicate number 2",-0.26
same,Growth Rate,"[1]; 18 h, replicate number 1",-0.14
same,Growth Rate,"[1]; 18 h, replicate number 2",-0.06
same,Growth Rate,"[1]; 24 h, replicate number 1",0.15
same,Growth Rate,"[1]; 24 h, replicate number 2",0.12
same,Growth Rate,"[2]; 6 h, replicate number 1",-0.69
same,Growth Rate,"[2]; 12 h, replicate number 1",-1
same,Growth Rate,"[3]; 0 h, replicate number 1",0
same,Growth Rate,"[3]; 0 h, replicate number 2",-0.99
same,Growth Rate,"[3]; 12 h, replicate number 1",0.56
same,Growth Rate,"[3]; 12 h, replicate number 2",0.36
same,Growth Rate,"[3]; 18 h, replicate number 1",0.33
same,Growth Rate,"[3]; 18 h, replicate number 2",0.31
same,Growth Rate,"[3]; 24 h, replicate number 1",0.37
same,Growth Rate,"[3]; 24 h, replicate number 2",0.18
